Reference: patent US8383646B2, “Therapeutic ((bicylicheteroaryl)imidazolyl) methylheteroaryl compounds” (Allergan, Inc., priority 2007, dated 2013)

Key:
Format in all cases: cell-based
alpha2C receptor = target: T1, alpha2C receptor (Homo sapiens, UniProt P18825); test: RSAT assay, alpha2C receptor; conditions: for Alpha 2C intrinsic activity (efficacy): ratio of maximal effect to that of standard full agonist brimonidine (UK14304), value in parentheses; for EC50: transfected NIH-3T3 cells with Gq/i5, ND = not determinable at concentrations less than 10 micromolar, read-out: Alpha 2C potency (EC50)
T1 construct: expressed in transfected cells; host or cells: NIH-3T3 cells
T1 sequence (P18825 1-462): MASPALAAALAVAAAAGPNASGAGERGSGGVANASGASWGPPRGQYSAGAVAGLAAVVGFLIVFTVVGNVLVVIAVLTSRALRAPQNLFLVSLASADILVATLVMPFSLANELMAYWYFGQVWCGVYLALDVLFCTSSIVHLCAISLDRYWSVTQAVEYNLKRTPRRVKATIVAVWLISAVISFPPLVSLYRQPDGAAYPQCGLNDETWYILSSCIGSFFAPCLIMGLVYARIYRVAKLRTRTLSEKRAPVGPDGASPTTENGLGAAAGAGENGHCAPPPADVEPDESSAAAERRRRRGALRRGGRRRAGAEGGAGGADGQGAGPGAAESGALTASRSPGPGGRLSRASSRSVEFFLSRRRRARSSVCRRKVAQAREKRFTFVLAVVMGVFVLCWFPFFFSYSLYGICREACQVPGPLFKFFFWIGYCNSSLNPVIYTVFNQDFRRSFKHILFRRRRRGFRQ
Procedure: (§1) Receptor Selection and Amplification Technology (RSAT) Assay
(§2) The RSAT assay measures a receptor-mediated loss of contact inhibition that results in selective proliferation of receptor-containing cells in a mixed population of confluent cells. The increase in cell number is assessed with an appropriate transfected marker gene such as β-galactosidase, the activity of which can be easily measured in a 96-well format. Receptors that activate the G protein, Gq, elicit this response. Alpha2 receptors, which normally couple to Gi, activate the RSAT response when coexpressed with a hybrid Gq protein that has a Gi receptor recognition domain, called Gq/i5.
(§3) NIH-3T3 cells are plated at a density of 2×10^6 cells in 15 cm dishes and maintained in Dulbecco's modified Eagle's medium supplemented with 10% calf serum. One day later, cells are cotransfected by calcium phosphate precipitation with mammalian expression plasmids encoding p-SV-β-galactosidase (5-10 μg), receptor (1-2 μg) and G protein (1-2 μg). 40 μg salmon sperm DNA may also be included in the transfection mixture. Fresh media is added on the following day and 1-2 days later, cells are harvested and frozen in 50 assay aliquots. Cells are thawed and 100 μl added to 100 μl aliquots of various concentrations of drugs in triplicate in 96-well dishes. Incubations continue 72-96 hr at 37° C. After washing with phosphate-buffered saline, β-galactosidase enzyme activity is determined by adding 200 μl of the chromogenic substrate (consisting of 3.5 mM o-nitrophenyl-β-D-galactopyranoside and 0.5% nonidet P-40 in phosphate buffered saline), incubating overnight at 30° C. and measuring optical density at 420 nm. The absorbance is a measure of enzyme activity, which depends on cell number and reflects a receptor-mediated cell proliferation. The efficacy or intrinsic activity is calculated as a ratio of the maximal effect of the drug to the maximal effect of a standard full agonist for each receptor subtype. Brimonidine, also called UK14304, the chemical structure of which is shown below, is used as the standard agonist for the alpha2A, alpha2B and alpha2C receptors. The EC50 is the concentration at which the drug effect is half of its maximal effect.
(§4) The results of the RSAT assay with several exemplary compounds of the invention are disclosed in Table 1 above together with the chemical formulas of these exemplary compounds. EC50 values are nanomolar. ND stands for “not determinable” at concentrations less than 10 micromolar. IA stands for “intrinsic activity.”

alpha2B receptor = target: T2, alpha2B receptor (Homo sapiens, UniProt P18089); test: RSAT assay, alpha2B receptor; conditions: for Alpha 2B intrinsic activity (efficacy): ratio of maximal effect to that of standard full agonist brimonidine (UK14304), value in parentheses; for EC50: transfected NIH-3T3 cells with Gq/i5, ND = not determinable at concentrations less than 10 micromolar, read-out: Alpha 2B potency (EC50)
T2 construct: expressed in transfected cells; host or cells: NIH-3T3 cells
T2 sequence (P18089 1-450): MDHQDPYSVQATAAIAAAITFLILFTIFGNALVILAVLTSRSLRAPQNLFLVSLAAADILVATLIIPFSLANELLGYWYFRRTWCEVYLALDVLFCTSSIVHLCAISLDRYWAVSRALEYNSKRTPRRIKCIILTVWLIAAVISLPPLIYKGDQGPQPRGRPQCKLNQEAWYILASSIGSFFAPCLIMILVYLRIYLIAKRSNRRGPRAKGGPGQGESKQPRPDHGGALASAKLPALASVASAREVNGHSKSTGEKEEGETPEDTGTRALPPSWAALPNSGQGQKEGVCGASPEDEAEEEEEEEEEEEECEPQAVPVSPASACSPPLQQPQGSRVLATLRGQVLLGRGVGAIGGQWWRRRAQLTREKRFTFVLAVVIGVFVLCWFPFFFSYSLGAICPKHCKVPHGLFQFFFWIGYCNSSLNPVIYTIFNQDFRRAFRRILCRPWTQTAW
Procedure: as §1, §2, §3, §4

alpha2A receptor = target: T3, alpha2A receptor (Homo sapiens, UniProt P08913); test: RSAT assay, alpha2A receptor; conditions: for Alpha 2A intrinsic activity (efficacy): ratio of maximal effect to that of standard full agonist brimonidine (UK14304), value in parentheses; for EC50: transfected NIH-3T3 cells with Gq/i5, ND = not determinable at concentrations less than 10 micromolar, read-out: Alpha 2A potency (EC50)
T3 construct: expressed in transfected cells; host or cells: NIH-3T3 cells
T3 sequence (P08913 1-465): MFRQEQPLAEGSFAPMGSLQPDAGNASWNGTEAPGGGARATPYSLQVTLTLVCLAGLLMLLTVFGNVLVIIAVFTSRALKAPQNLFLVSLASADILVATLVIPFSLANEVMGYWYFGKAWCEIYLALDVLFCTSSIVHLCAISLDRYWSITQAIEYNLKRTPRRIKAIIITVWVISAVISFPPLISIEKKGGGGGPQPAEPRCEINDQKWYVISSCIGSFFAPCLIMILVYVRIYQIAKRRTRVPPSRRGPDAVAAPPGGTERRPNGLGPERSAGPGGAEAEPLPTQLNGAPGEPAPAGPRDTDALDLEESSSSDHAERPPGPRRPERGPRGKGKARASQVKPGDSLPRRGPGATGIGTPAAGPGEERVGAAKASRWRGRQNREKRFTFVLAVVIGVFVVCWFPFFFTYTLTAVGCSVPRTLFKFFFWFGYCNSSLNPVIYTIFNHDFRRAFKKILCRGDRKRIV
Procedure: as §1, §2, §3, §4

| Compound | Alpha 2C intrinsic activity (efficacy) (alpha2C receptor) | EC50 (alpha2C receptor) [nM] | Alpha 2B intrinsic activity (efficacy) (alpha2B receptor) | EC50 (alpha2B receptor) [nM] | Alpha 2A intrinsic activity (efficacy) (alpha2A receptor) | EC50 (alpha2A receptor) [nM] |
| --- | --- | --- | --- | --- | --- | --- |
| c1ccc(C(c2cnc[nH]2)c2cccc3cccnc23)nc1 (stereo not shown) | 0.60 | 275 | 1.00 | 22 | 0.15 | > 10000 |
| c1cncc(C(c2cnc[nH]2)c2cccc3cccnc23)c1 (stereo not shown) | 1.16 | 123 | 1.29 | 2.15 | 0.50 | 576 |
| c1ccc(C(c2cnc[nH]2)c2cccc3ncccc23)nc1 (stereo not shown) | 0.22 | > 10000 | 0.45 | 348 | 0.13 | > 10000 |
| c1cncc(C(c2cnc[nH]2)c2cccc3ncccc23)c1 (stereo not shown) | 0.33 | > 10000 | 0.90 | 231 | 0.12 | > 10000 |
| c1cc(C(c2ccncc2)c2cnc[nH]2)c2cccnc2c1 (stereo not shown) | 0.18 | > 10000 | 0.65 | 771 |  | > 10000 |
| c1ccc(C(c2cnc[nH]2)c2cccc3c2OCC3)nc1 (stereo not shown) | 0.86 | 159 | 0.87 | 9.12 | 0.23 |  |
| c1cncc(C(c2cnc[nH]2)c2cccc3c2OCC3)c1 (stereo not shown) | 1.12 | 157 | 1.13 | 10 | 0.46 | 430 |
